Results reported in patent US12371748B2, “Genetic markers for predicting responsiveness to therapy with HDL-raising or HDL mimicking agent” (Hoffmann-La Roche Inc., priority 2014, dated 2025).

System: patients recently hospitalized for an Acute Coronary Syndrome (ACS)
Experiment: dal-OUTCOMES pharmacogenomic study: cardiovascular events by ADCY9 genotype (Cox proportional hazards)
Assay type: in vivo, human
Design: key to Responsiveness to treatment: NR = non-responsive; PR = partially responsive; R = responsive
Settings: for HR, dal-OUTCOMES: per copy of minor allele; for Hazard ratio (dal vs placebo): time to events
Protocol: Dal-OUTCOMES trial (NC20971) was a double blind, randomized, placebo-controlled, parallel group, multi-center, phase III study to assess the safety and efficacy of the CETP inhibitor dalcetrapib in patients recently hospitalized for an Acute Coronary Syndrome (ACS). At time of the interim analysis the study included 15871 randomized patients, distributed over two treatment arms: placebo (7933 patients) and dalcetrapib (600 mg daily; 7938 patients). […] The dal-OUTCOMES study details can be found in G. Schwartz et al., N. Engl. J. Med. 367; 22, 2012.
dal-Outcomes patients were recruited 4 to 12 weeks following hospitalization for acute coronary syndrome characterized by elevated cardiac biomarkers, with symptoms of acute myocardial ischemia, ischemic electrocardiographic abnormalities that were new or presumed to be new, or loss of viable myocardium on imaging. Patients without elevated cardiac biomarkers were eligible to participate if symptoms of acute myocardial ischemia were accompanied by electrocardiographic changes that were new or presumed to be new and by additional evidence of obstructive coronary disease. (Schwartz G G et al. Am Heart J 2009; 158:896-901 e3).
All patients were following individualized programs to target LDL cholesterol levels of 100 mg per deciliter (2.6 mmol per liter) or lower by statin if tolerated and diet. No specific statin agent was specified, and patients were not excluded based on LDL cholesterol values. Patients with serum triglyceride levels of 400 mg per deciliter (4.5 mmol per liter) or higher were excluded. (Schwartz G G et al. N Engl J Med 2012; 367:2089-99) Eligible participants to the dal-Outcomes trial entered a single-blind placebo run-in period of approximately 4 to 6 weeks to allow for patients to stabilise and for completion of planned revascularisation procedures. At the end of the run-in period, eligible patients in stable condition were randomised in a 1:1 ratio to 600 mg of dalcetrapib or placebo on top of evidence-based medical care for acute coronary syndrome. Cardiovascular events were adjudicated by an independent clinical endpoint committee. For the pharmacogenomics study, 6338 patients were recruited from April 2008 through July 2010 at 461 sites in 14 countries and provided written informed consent to participate to the genetic study of the dal-OUTCOMES trial. DNA was extracted from whole blood. Following genomic data cleanup, samples from 5749 Caucasian patients were used for the discovery genome-wide association study (GWAS).
The Illumina Infinium HumanOmni2.5Exome-8v1_A BeadChip including 2,567,845 genetic variants (Illumina, San Diego, California) was used for the discovery GWAS of 5749 Caucasian participants to the dal-OUTCOMES study. The chromosome 16 region including 5 genes upstream and downstream of the adenylate cyclase type 9 (ADCY9) gene (CHR16: 3,400,000-4,600,000) was imputed using IMPUTE2, providing 17,764 variants for analysis with an average completion rate of 99.76%. A Sequenom panel was used for the confirmation of imputed single nucleotide polymorphisms (SNPs) in the ADCY9 gene identified in dal-OUTCOMES and were tested in the dal-PLAQUE-2 study, including 20 SNPs with P values<0.05 from the discovery GWAS.
Genome-wide association study (GWAS)—Genome-wide genotyping was performed using 200 ng of genomic DNA in GLP-environment at the Beaulieu-Saucier Pharmacogenomics Centre (Montreal, Canada). The Illumina Infinium HumanOmni2.5Exome-8v1_A BeadChip (Illumina, San Diego, CA) including 2,567,845 genomic markers was used and processed according to the manufacturer's specifications. This chip includes over 200,000 exome variants identified through the Exome Chip Consortium. The remaining BeadChip content is a mix of rare and common SNPs from the 1000 Genome Project designed to be maximally informative for diverse world populations. Each BeadChip was scanned and analyzed using the Illumina iScan Reader. […]

For CCC(CC)CC1(C(=O)Nc2ccccc2SC(=O)C(C)C)CCCCC1 [dalcetrapib, thioisobutyric acid S-(2-{[1-(2-ethyl-butyl)-cyclohexanecarbonyl]-amino}-phenyl) ester], the “HR, association of rs2238448 with events in dal-OUTCOMES” value (dalcetrapib arm, genetic effect) was 0.67, the Patients with events (dalcetrapib arm, rs1967309 AA) was 38 and the Patients without events (dalcetrapib arm, rs1967309 AA) was 447. It also gave a Patients with events (dalcetrapib arm, rs1967309 AG) of 176, a Patients without events (dalcetrapib arm, rs1967309 AG) of 1203 and a Patients with events (dalcetrapib arm, rs1967309 GG) of 176. The Patients without events (dalcetrapib arm, rs1967309 GG) was 802, the “HR, dal-OUTCOMES” value (rs1967309, Cox additive genetic model) was 0.651 and the “HR, dalcetrapib compared to placebo, coronary revascularizations removed from the endpoint” value (rs1967309 AA) was 0.60. The Responsiveness to treatment (rs1967309 AA) was “R”, the “reduction in pre-specified composite endpoint with dalcetrapib compared to placebo” value (rs1967309 AA (n=961)) was 39% and the “HR, composite endpoint, dalcetrapib compared to placebo” value (rs1967309 AA (n=961), discovery cohort) was 0.61. For the same compound, the “Hazard ratio (dal vs placebo)” value (rs1967309 AA) was 0.625, the Responsiveness to treatment (rs1967309 AG) was “PR” and the “Hazard ratio (dal vs placebo)” value (rs1967309 AG) was 0.953. For the same compound, the Responsiveness to treatment (rs1967309 GG) was “NR”, the “increase in cardiovascular events, dalcetrapib versus placebo” value (rs1967309 GG (n=1984)) was 27% and the “HR, cardiovascular events, dalcetrapib versus placebo” value (rs1967309 GG (n=1984), discovery cohort) was 1.27. The “Hazard ratio (dal vs placebo)” value (rs1967309 GG) was 1.248, the “response to dalcetrapib in words” value (rs1967309 heterozygous AG) was “intermediate response” and the “HR, cardiovascular events, dalcetrapib versus placebo” value (rs1967309 heterozygous AG (n=2796), discovery cohort) was 0.94. The “HR, dal-OUTCOMES” value (rs2238448, Cox additive genetic model) was 0.671, the Responsiveness to treatment (rs2238448 CC) was “NR” and the “Hazard ratio (dal vs placebo)” value (rs2238448 CC) was 1.291. For the same compound, the Responsiveness to treatment (rs2238448 CT) was “PR”, the “Hazard ratio (dal vs placebo)” value (rs2238448 CT) was 0.974 and the Responsiveness to treatment (rs2238448 TT) was “R”. For the same compound, the “Hazard ratio (dal vs placebo)” value (rs2238448 TT) was 0.657, the “HR, dal-OUTCOMES” value (rs2239310, Cox additive genetic model) was 0.674 and the Responsiveness to treatment (rs2239310 AA) was “NR”. For the same compound, the “Hazard ratio (dal vs placebo)” value (rs2239310 AA) was 1.150, the Responsiveness to treatment (rs2239310 AG) was “PR” and the “Hazard ratio (dal vs placebo)” value (rs2239310 AG) was 0.971. The Responsiveness to treatment (rs2239310 GG) was “R”, the “Hazard ratio (dal vs placebo)” value (rs2239310 GG) was 0.623 and the “HR, dal-OUTCOMES” value (rs2283497, Cox additive genetic model) was 0.766. The Responsiveness to treatment (rs2283497 GG) was “NR”, the “Hazard ratio (dal vs placebo)” value (rs2283497 GG) was 1.226 and the Responsiveness to treatment (rs2283497 GT) was “PR”. The “Hazard ratio (dal vs placebo)” value (rs2283497 GT) was 0.999, the Responsiveness to treatment (rs2283497 TT) was “R” and the “Hazard ratio (dal vs placebo)” value (rs2283497 TT) was 0.581. The “HR, dal-OUTCOMES” value (rs2531967, Cox additive genetic model) was 0.734, the Responsiveness to treatment (rs2531967 AA) was “R” and the “Hazard ratio (dal vs placebo)” value (rs2531967 AA) was 0.786. For the same compound, the Responsiveness to treatment (rs2531967 AG) was “PR”, the “Hazard ratio (dal vs placebo)” value (rs2531967 AG) was 0.855 and the Responsiveness to treatment (rs2531967 GG) was “NR”. The “Hazard ratio (dal vs placebo)” value (rs2531967 GG) was 1.121, the “HR, dal-OUTCOMES” value (rs2531971, Cox additive genetic model) was 0.664 and the Responsiveness to treatment (rs2531971 AA) was “R”. The “Hazard ratio (dal vs placebo)” value (rs2531971 AA) was 0.660, the Responsiveness to treatment (rs2531971 AC) was “PR” and the “Hazard ratio (dal vs placebo)” value (rs2531971 AC) was 0.965. For the same compound, the Responsiveness to treatment (rs2531971 CC) was “NR”, the “Hazard ratio (dal vs placebo)” value (rs2531971 CC) was 1.254 and the “HR, dal-OUTCOMES” value (rs3730119, Cox additive genetic model) was 0.763. The Responsiveness to treatment (rs3730119 AA) was “R”, the “Hazard ratio (dal vs placebo)” value (rs3730119 AA) was 0.472 and the Responsiveness to treatment (rs3730119 AG) was “PR”. The “Hazard ratio (dal vs placebo)” value (rs3730119 AG) was 0.887, the Responsiveness to treatment (rs3730119 GG) was “NR” and the “Hazard ratio (dal vs placebo)” value (rs3730119 GG) was 1.059. For the same compound, the “HR, dal-OUTCOMES” value (rs4786454, Cox additive genetic model) was 0.668, the Responsiveness to treatment (rs4786454 AA) was “R” and the “Hazard ratio (dal vs placebo)” value (rs4786454 AA) was 0.573. For the same compound, the Responsiveness to treatment (rs4786454 AG) was “PR”, the “Hazard ratio (dal vs placebo)” value (rs4786454 AG) was 0.91 and the Responsiveness to treatment (rs4786454 GG) was “NR”. The “Hazard ratio (dal vs placebo)” value (rs4786454 GG) was 1.062, the “HR, dal-OUTCOMES” value (rs8049452, Cox additive genetic model) was 1.413 and the Responsiveness to treatment (rs8049452 CC) was “R”. The “Hazard ratio (dal vs placebo)” value (rs8049452 CC) was 0.804, the Responsiveness to treatment (rs8049452 CT) was “PR” and the “Hazard ratio (dal vs placebo)” value (rs8049452 CT) was 0.971. For the same compound, the Responsiveness to treatment (rs8049452 TT) was “NR”, the “Hazard ratio (dal vs placebo)” value (rs8049452 TT) was 1.543 and the “HR, dal-OUTCOMES” value (rs8061182, Cox additive genetic model) was 1.343.
